Experiment [1] concerns the target T1, Progesterone receptor (Homo sapiens, UniProt P06401).
T1 sequence (P06401 whole entry): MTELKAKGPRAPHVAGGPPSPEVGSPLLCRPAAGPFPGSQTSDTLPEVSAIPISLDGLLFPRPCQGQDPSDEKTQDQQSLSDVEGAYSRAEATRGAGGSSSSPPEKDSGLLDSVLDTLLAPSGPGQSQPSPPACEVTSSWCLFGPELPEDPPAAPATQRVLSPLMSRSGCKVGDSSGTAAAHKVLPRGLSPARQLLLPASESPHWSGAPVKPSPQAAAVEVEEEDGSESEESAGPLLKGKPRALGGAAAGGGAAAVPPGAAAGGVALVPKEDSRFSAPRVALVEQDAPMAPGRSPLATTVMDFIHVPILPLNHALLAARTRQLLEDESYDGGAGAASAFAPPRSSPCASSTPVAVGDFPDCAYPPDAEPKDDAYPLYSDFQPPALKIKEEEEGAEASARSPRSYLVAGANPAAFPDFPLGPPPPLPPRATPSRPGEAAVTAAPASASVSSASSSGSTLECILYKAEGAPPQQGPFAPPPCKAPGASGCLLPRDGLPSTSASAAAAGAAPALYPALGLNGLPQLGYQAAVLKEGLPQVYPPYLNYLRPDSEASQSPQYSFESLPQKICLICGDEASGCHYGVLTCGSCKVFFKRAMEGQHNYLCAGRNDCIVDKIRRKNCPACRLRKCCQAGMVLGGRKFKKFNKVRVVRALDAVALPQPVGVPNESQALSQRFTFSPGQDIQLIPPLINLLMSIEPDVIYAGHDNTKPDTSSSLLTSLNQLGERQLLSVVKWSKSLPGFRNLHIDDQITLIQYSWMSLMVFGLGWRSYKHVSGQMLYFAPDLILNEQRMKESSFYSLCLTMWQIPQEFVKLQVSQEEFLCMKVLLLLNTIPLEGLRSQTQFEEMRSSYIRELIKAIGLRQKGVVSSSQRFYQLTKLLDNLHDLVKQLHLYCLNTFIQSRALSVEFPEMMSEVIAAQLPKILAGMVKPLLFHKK
Description: Antagonistic activity at human progesterone receptor in CV-1 cells.

The target of experiment [2] is T1, Progesterone receptor. This is another data set of the same source.
For experiment [3], the target named is T1, Progesterone receptor. This is another data set of the same source.
Description: Binding affinity at human progesterone receptor.
Experiment [4] addresses T1, Progesterone receptor. This is another data set of the same source.
Description: Inhibition of human progesterone receptor activation in T47D human breast cancer cell.
For experiment [5], the target named is T2, Progesterone receptor (Homo sapiens) (UniProt P06401).
T2 sequence (whole entry): T1 sequence (P06401 whole entry)
The experiment is described as follows: Agonist efficacy for human progesterone receptor in T47D human breast cancer cell; not active (<20% efficacy and/or >10 mM potency). The format is functional, cell-based.

In experiment [6] the target is T1, Progesterone receptor. Description: Effective concentration for human progesterone receptor in T47D human breast cancer cell; not active (<20% efficacy and/or >10 mM potency). Conditions: cancer cell lines.

SMILES strings stand for the structures. Activity calls are given as the source filed them.

One may read the EC50 as the concentration giving half of the maximal effect. The term Ki denotes the equilibrium dissociation constant of an inhibitor or competing ligand from its target. Higher therefore signals lower affinity. Broadly, the IC50 is the midpoint of a concentration-inhibition curve. As to `COc1ccc2c(c1)-c1ccc3c(c1CO2)C(C)=CC(C)(C)N3`, the figures for the EC50 at Progesterone receptor [1] and on Progesterone receptor [2] were 170 nM and greater than 1000 nM, respectively. On Progesterone receptor [3], this compound displayed a Ki of 86 nM. For the same compound, half-maximal inhibition on Progesterone receptor [4] (IC50) was put at 187 nM.

Take `CC1=CC(C)(C)Nc2ccc3c(c21)COc1c(F)cccc1-3`: the EC50 is 118 nM at Progesterone receptor [1] and greater than 1000 nM on Progesterone receptor [2]. The compound also showed a Ki at Progesterone receptor [3] of 248 nM. The compound further had an IC50 against Progesterone receptor [4] of 368 nM.

Compound `COc1cc(Br)cc2c1OCc1c-2ccc2c1C(C)=CC(C)(C)N2` had an EC50 on Progesterone receptor [1] of 43 nM. In addition, at Progesterone receptor [3], the Ki came out at 476 nM.

With `CC1=CC(C)(C)Nc2ccc3c(c21)COc1c(C)cc(Cl)cc1-3`, the EC50 at Progesterone receptor [1] was determined as 178 nM. This compound displayed a Ki on Progesterone receptor [3] of 205 nM. Further, half-maximal inhibition against Progesterone receptor [4] (IC50) was put at 374 nM.

Consider `CC1=CC(C)(C)Nc2ccc3c(c21)COc1ccc(-c2ccccc2)cc1-3`, for which the Efficacy entry in experiment [5] was “inactive”. The values for the concentration for a half-maximal effect (EC50) result on Progesterone receptor [6] and at Progesterone receptor [1] were “Not Active” and 2030 nM, respectively. The Ki on Progesterone receptor [3] is greater than 1000 nM. For the same compound, the IC50 at Progesterone receptor [4] came to 811 nM.

For the origin of these results see ChEMBL document CHEMBL1144945, “Development of progesterone receptor antagonists from 1,2-dihydrochromeno[3,4-f]quinoline agonist pharmacophore” (Bioorg Med Chem Lett, 2003).
